Read-outs that look alike come from different tables or passages of the source.
Legend:
[1] = system: femoral blood pressure and heart rate; experiment: Cardiovascular activity (blood pressure and heart rate) in anesthetized rats; type: in vivo; settings: for Heart rate, maximum effect in % / ED25: I.V., pentobarbital-anesthetized rats; for ED25: Rattus norvegicus, iv, 25% drop in average blood pressure; for hypotensive potential compared with nicardipine: ED25 values 5 min after I.V. injection, in words
Description: The cardiovascular effects of three products were studied in rats anesthetized with pentobarbital and placed under artificial respiration. The femoral blood pressure and the heart rate are recorded by means of a GOULD-BRUSH apparatus.
The products are administered intravenously in increasing doses. Three animals are tested per product. The dose which causes a 25% drop in average blood pressure (ED25) was evaluated for each product and compared with nicardipine 1 to 5 min after administration.
The products have dose-dependent hypotensive effects but have little or no effect on the heart rate (Table 7). The most hypotensive in terms of the effective dose is B 1395 (ED25 of 0.004 mg.kg^-1).

[2] = target: T1, postsynaptic alpha-adrenergic receptors (Rattus norvegicus, UniProt P43140); experiment: Alpha-blocking activity towards norepinephrine on isolated rat vas deferens; type: biochemical; settings: -log of concentration requiring doubled norepinephrine; for Kb: read-out: pA2 (converted)
T1 construct: causes contraction of the isolated vas deferens; from tissue; host or cells: isolated rat vas deferens
T1 sequence (P43140 1-466): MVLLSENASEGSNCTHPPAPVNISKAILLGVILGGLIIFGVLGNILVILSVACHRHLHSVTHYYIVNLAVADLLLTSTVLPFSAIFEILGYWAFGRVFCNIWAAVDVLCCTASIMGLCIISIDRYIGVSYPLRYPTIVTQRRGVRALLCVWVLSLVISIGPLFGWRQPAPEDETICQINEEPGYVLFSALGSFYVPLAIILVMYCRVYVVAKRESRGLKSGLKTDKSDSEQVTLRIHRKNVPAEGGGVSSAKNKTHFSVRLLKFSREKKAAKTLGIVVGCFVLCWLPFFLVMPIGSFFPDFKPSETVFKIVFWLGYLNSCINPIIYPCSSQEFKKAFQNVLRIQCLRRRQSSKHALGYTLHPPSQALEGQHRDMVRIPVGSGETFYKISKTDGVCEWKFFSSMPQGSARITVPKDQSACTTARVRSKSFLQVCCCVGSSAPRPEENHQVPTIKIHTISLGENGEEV
Description: Stimulation of the postsynaptic alpha-adrenergic receptors by norepinephrine causes contraction of the isolated vas deferens.
The concentration of product in whose presence the norepinephrine concentration must be doubled in order to obtain the same effect as in the absence of said product is determined. The logarithm of this concentration, with the opposite sign, constitutes the pA2 of the products.
Their alpha-blocking activity is high since it appears for low concentrations of between 10^-6 M and 10^-8 M.

[3] = Acute toxicity in mice (oral, LD50); settings: mouse, in vivo, male mice, single dose, 14-day observation
Description: The products were administered orally in a single dose to male mice with an average weight of 22 g. The mortality was recorded after a 14-day observation period.
The results are expressed in the form of the 50% lethal dose (LD50), i.e. the theoretical dose in mg.kg^-1, administered orally, which causes the death of 50% of the animals.
The majority of the molecules have an LD50 of more than 1 g.kg^-1. These are therefore products with a low toxicity after a single administration.

[4] = system: lethal effect of norepinephrine; experiment: Adrenolytic activity in vivo on the lethal effect of norepinephrine in rats; settings: for ED50: Rattus norvegicus, wake male rats, norepinephrine 0.4 mg.kg^-1 intravenous, prior administration of product, read-out: ED50 (dose which protects 50% of the animals); for adrenolytic activity in the whole animals: rats, in words
Description: The intravenous injection of norepinephrine (0.4 mg.kg^-1) into wake male rats causes the death of 100% of the animals. The prior administration of a substance which has an alpha-blocking property makes it possible to reduce this toxicity.
The results are expressed in the form of the 50% effective dose (ED50), i.e. the dose in mg.kg^-1 which protects 50% of the animals (Table 5).

[5] = system: hypertension induced by norepinephrine; experiment: Inhibitory activity towards hypertension induced by norepinephrine in anesthetized rabbits; type: in vivo; settings: Oryctolagus cuniculus; anesthetized male rabbits, intravenous; read-out: ID50 (50% inhibition of norepinephrine-induced hypertension)
Description: The blood pressure is measured by catheterization of the left carotid artery of anesthetized male rabbits. An increase in blood pressure is induced by an intravenous injection of norepinephrine. This hypertension can be inhibited by the prior administration of molecules with an alpha-blocking potential.
These are presented in Table 6 in the form of the 50% inhibitory dose (ID50), which is defined as the dose of product which, when administered intravenously, causes a 50% inhibition of the hypertension induced by norepinephrine.

[6] = 1 min, 1 minute, read-out: Blood pressure: Hypotension, ED25 at 1 minute
[7] = 5 min, 5 minutes, read-out: Blood pressure: Hypotension, ED25 at 5 minutes

COC(=O)C1=C(C)NC(C)=C(C(=O)OCCN(C)Cc2ccccc2)C1c1cccc([N+](=O)[O-])c1 (stereo not shown) [NICARDIPINE, nicardipine, reference compound]
Heart rate, maximum effect in % [1]: 0%
ED25 [1, 6]: 0.0015 mg/kg
ED25 [1, 7]: 0.2 mg/kg

Cc1ccc(Cl)cc1N1CCN(CCOc2scnc2C)CC1 [B 1313, 4-methyl-5-[2-[4-(5-chloro-2-methylphenyl)piperazin-1-yl]ethoxy]thiazole]
Kb [2]: 81.3 nM
LD50 at 336 h [3]: 770 mg/kg
ED50 [4]: 109 mg/kg

Cc1ncsc1OCCN1CCN(c2cccc(C(F)(F)F)c2)CC1 [B 1194, 4-methyl-5-[2-(4-m-trifluoromethylphenylpiperazin-1yl)ethoxy]thiazole]
Kb [2]: 2570 nM
LD50 at 336 h [3]: > 1000 mg/kg
ED50 [4]: 200 mg/kg

Cc1ncsc1OCC(O)CN1CCN(c2ccccc2OCC(C)(C)C)CC1 (stereo not shown) [B 1562, 3-(4-o-neopentoxyphenylpiperazin-1-yl)-1-(4-methylthiazolyl-5-oxy)propan-2-ol]
LD50 at 336 h [3]: > 1000 mg/kg

Cc1ncsc1OCC(O)CN1CCN(c2ccccc2OC(C)C)CC1 (stereo not shown) [B 1429, 3-(4-o-isopropoxyphenylpiperazin-1-yl)-1-(4-methylthiazolyl-5-oxy)propan-2-ol]
Kb [2]: 4.57 nM
LD50 at 336 h [3]: 428 mg/kg
Heart rate, maximum effect in % [1]: -5.1%
ED25 [1, 6]: 0.016 mg/kg
ED25 [1, 7]: 0.03 mg/kg
ED50 [4]: 0.5 mg/kg
adrenolytic activity in the whole animals [4]: very active

Cc1ncsc1OCCN1CCN(c2ccc(F)cc2)CC1 [B 1227, 4-methyl-5-[2-(4-p-fluorophenylpiperazin-1-yl)ethoxy]thiazole]
Kb [2]: > 1000 nM
LD50 at 336 h [3]: 1000 mg/kg
ED50 [4]: 30 mg/kg

Cc1ncsc1OCC(O)CN1CCN(c2ccccc2O)CC1 (stereo not shown) [B 1396, 3-(4-o-hydroxyphenylpiperazin-1-yl)-1-(4-methylthiazolyl-5-oxy)propan-2-ol]
Kb [2]: 316 nM
LD50 at 336 h [3]: 315 mg/kg
hypotensive potential compared with nicardipine [1]: on a level with that of nicardipine
Heart rate, maximum effect in % [1]: 0%
ED25 [1, 6]: 0.008 mg/kg
ED25 [1, 7]: 0.06 mg/kg
ED50 [4]: 0.6 mg/kg
adrenolytic activity in the whole animals [4]: very active

CCCOc1ccccc1N1CCN(CCOc2scnc2C)CC1 [B 1242]
adrenolytic activity in the whole animals [4]: very active

Cc1ncsc1OCC(O)CN1CCN(c2ccccc2OCC(C)C)CC1 (stereo not shown) [B 1431, 3-(4-o-phenylpiperazin-1-yl)-1-(4-methylthiazolyl-5-oxy)propan-2-ol]
Kb [2]: 7.41 nM
LD50 at 336 h [3]: 1000 mg/kg
hypotensive potential compared with nicardipine [1]: on a level with that of nicardipine
Heart rate, maximum effect in % [1]: -12%
ED25 [1, 6]: 0.1 mg/kg
ED25 [1, 7]: 0.24 mg/kg
ED50 [4]: 0.4 mg/kg
adrenolytic activity in the whole animals [4]: very active

CCCCCOc1ccccc1N1CCN(CC(O)COc2scnc2C)CC1 (stereo not shown) [B 1525, 3-(4-o-pentoxyphenylpiperazin-1-yl)-1-(4-methylthiazolyl-5-oxy)propan-2-ol]
Kb [2]: 7.94 nM
LD50 at 336 h [3]: > 1000 mg/kg
Heart rate, maximum effect in % [1]: -8%
ED25 [1, 6]: 0.04 mg/kg
ED25 [1, 7]: 0.04 mg/kg
ED50 [4]: 1.27 mg/kg
adrenolytic activity in the whole animals [4]: very active

CCOc1cccc(N2CCN(CCOc3scnc3C)CC2)c1 [B 1325, 4-methyl-5-[2-(4-m-ethoxyphenylpiperazin-1-yl)-ethoxy]thiazole]
Kb [2]: 813 nM
LD50 at 336 h [3]: > 1000 mg/kg
ED50 [4]: 49 mg/kg

COc1ccccc1N1CCN(CC(O)COc2scnc2C)CC1 (stereo not shown) [B 1510, 3-(4-o-methoxyphenylpiperazin-1-yl)-1-(4-methylthiazolyl-5-oxy)propan-2-ol]
Kb [2]: 21.4 nM
LD50 at 336 h [3]: 235 mg/kg
Heart rate, maximum effect in % [1]: -6%
ED25 [1, 6]: 0.01 mg/kg
ED25 [1, 7]: 0.01 mg/kg
ED50 [4]: 0.52 mg/kg
adrenolytic activity in the whole animals [4]: very active

CCCOc1ccccc1N1CCN(CCOc2scnc2C)CC1 [B 1342, 4-methyl-5-[2-(4-o-propoxyphenylpiperazin-1-yl)-ethoxy]thiazole]
Kb [2]: 16.2 nM
LD50 at 336 h [3]: > 1000 mg/kg
ED50 [5]: 7.3 mg/kg
ED50 [4]: 4 mg/kg

COc1ccccc1N1CCN(CCOc2scnc2C)CC1 [B 1223, 4-methyl-5-[2-(4-o-methoxyphenylpiperazin-1-yl)ethoxy]thiazole]
Kb [2]: 269 nM
LD50 at 336 h [3]: > 1000 mg/kg
ED50 [4]: 13 mg/kg

Cc1cccc(Cl)c1N1CCN(CCOc2scnc2C)CC1 [B 1366, 4-methyl-5-[2-[4-(6-chloro-2-methylphenyl)piperazin-1-yl]ethoxy]thiazole]
Kb [2]: > 1000 nM
LD50 at 336 h [3]: 740 mg/kg
ED50 [4]: 100 mg/kg

Cc1ncsc1OCCN1CCN(c2ccccc2O)CC1 [B 1430, 4-methyl-5-[2-(4-o-hydroxyphenylpiperazin-1-yl)-ethoxy]thiazole]
Kb [2]: 229 nM
LD50 at 336 h [3]: 305 mg/kg
ED50 [4]: 8.3 mg/kg

Cc1cc(Cl)ccc1N1CCN(CC(O)COc2scnc2C)CC1 (stereo not shown) [B 1406, 3-[4-(4-chloro-2-methylphenyl)piperazin-1-yl]-1-(4-methylthiazolyl-5-oxy)propan-2-ol]
pA2 [2]: 6.40
LD50 at 336 h [3]: 515 mg/kg
ED50 [4]: 8.1 mg/kg

Cc1ncsc1OCC(O)CN1CCN(c2ccccc2OCCC(C)C)CC1 (stereo not shown) [B 1552, 3-(4-o-isopentoxyphenylpiperazin-1-yl)-1-(4-methylthiazolyl-5-oxy)propan-2-ol]
Kb [2]: 22.9 nM
LD50 at 336 h [3]: > 1000 mg/kg
hypotensive potential compared with nicardipine [1]: on a level with that of nicardipine
Heart rate, maximum effect in % [1]: -7.9%
ED25 [1, 6]: 0.12 mg/kg
ED25 [1, 7]: 0.25 mg/kg
ED50 [4]: 1.55 mg/kg
adrenolytic activity in the whole animals [4]: very active

Cc1ncsc1OCCN1CCN(c2ccccc2)CC1 [B 1216, 4-methyl-5-[2-(4-phenylpiperazin-1-yl)ethoxy]thiazole]
Kb [2]: 89.1 nM
LD50 at 336 h [3]: > 1000 mg/kg
ED50 [5]: > 3 mg/kg
ED50 [4]: 33 mg/kg

Cc1ncsc1OCC(O)CN1CCN(c2cccc(Cl)c2)CC1 (stereo not shown) [B 1548, 3-(4-m-chlorophenylpiperazin-1-yl)-1-(4-methylthiazolyl-5-oxy)propan-2-ol]
LD50 at 336 h [3]: > 500 mg/kg
ED50 [4]: 15.8 mg/kg
adrenolytic activity in the whole animals [4]: very active

Cc1cc(Cl)ccc1N1CCN(CCOc2scnc2C)CC1 [B 1259, 4-methyl-5-[2-[4-(4-chloro-2-methylphenyl)piperazin-1-yl]ethoxy]thiazole]
Kb [2]: 1350 nM
LD50 at 336 h [3]: 630 mg/kg
ED50 [4]: 45 mg/kg

Cc1ncsc1OCCN1CCN(c2ccccc2F)CC1 [B 1305, 4-methyl-5-[2-(4-o-fluorophenylpiperazin-1-yl)-ethoxy]thiazole]
Kb [2]: 81.3 nM
LD50 at 336 h [3]: > 1000 mg/kg
ED50 [5]: 3 mg/kg
ED50 [4]: 35 mg/kg

Cc1ncsc1OCC(O)CN1CCN(c2cccc(C(F)(F)F)c2)CC1 (stereo not shown) [B 1489, 3-(4-m-trifluoromethylphenylpiperazin-1-yl)-1-(4-methylthiazolyl-5-oxy)propan-2-ol]
LD50 at 336 h [3]: > 1000 mg/kg
ED50 [4]: 59.7 mg/kg

— patent US5322846A, “4-methylthiazole derivatives, their methods of preparation and the pharmaceutical compositions in which they are present” (Institut de Recherches Chimiques et Biologiques Appliquees …, priority 1990, dated 1994)
